According to PMC12822377, “Investigating the role of cytochrome bd oxidases in the antibacterial activity of madecassic acid and derivatives thereof” (RSC Medicinal Chemistry, 2026):

How the values were obtained:
[1] = test system: E. coli EC958 cytochrome bd-I only cells; assay: microbe, parasite or virus in culture; assay type: cell-based, Escherichia coli
Protocol: (§1) EC958 is a multidrug-resistant E. coli O25: H4-ST131 isolate.[16,17] Generation of the EC958 bd-I only strain (genotype ΔcyoA appCB::Cm) is described elsewhere.[13]
(§2) Viability assays were performed essentially as described previously.[13] Briefly, E. coli was grown overnight in 10 mL LB medium and was used to inoculate M9 medium. 20 μL of each drug was added to the wells of row A of a 96 well plate followed by 180 μL of cells (OD600 of 0.1). Cells were exposed to drug for 3 hours at 37 °C. Following drug exposure, serial dilutions were performed in 1 × phosphate buffered saline (pH 7.4) before being spotted onto LB agar plates overnight to determine changes in cell survival. Six repeats were performed for each concentration of drug which included two biological repeats and three technical repeats of each.

succinate dehydrogenase = target: T1, succinate dehydrogenase (Escherichia coli, UniProt P07014+P0AC41+P0AC44+P69054); assay: Succinate dehydrogenase assay in isolated E. coli membranes; assay type: biochemical; settings: 1 mM
T1 construct: endogenous in cells; host or cells: E. coli membranes; the main text says EcoM4 pSU2718G-cydABX-his6, the supplement says EC958
T1 sequence (P0AC41 whole entry): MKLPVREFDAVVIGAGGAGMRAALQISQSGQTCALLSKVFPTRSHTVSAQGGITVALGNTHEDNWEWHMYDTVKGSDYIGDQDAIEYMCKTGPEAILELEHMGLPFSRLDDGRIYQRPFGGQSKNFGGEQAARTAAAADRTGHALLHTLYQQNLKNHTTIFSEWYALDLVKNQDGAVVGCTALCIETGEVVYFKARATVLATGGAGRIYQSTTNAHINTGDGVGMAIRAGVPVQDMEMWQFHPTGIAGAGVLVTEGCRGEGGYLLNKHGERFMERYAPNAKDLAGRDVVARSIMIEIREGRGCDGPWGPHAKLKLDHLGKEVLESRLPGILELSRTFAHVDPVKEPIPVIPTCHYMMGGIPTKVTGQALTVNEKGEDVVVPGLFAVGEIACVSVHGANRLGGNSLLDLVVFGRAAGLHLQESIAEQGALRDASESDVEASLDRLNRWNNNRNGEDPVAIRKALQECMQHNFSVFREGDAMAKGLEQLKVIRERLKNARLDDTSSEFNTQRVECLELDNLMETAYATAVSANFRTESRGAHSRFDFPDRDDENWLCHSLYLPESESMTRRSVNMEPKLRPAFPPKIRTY
T1 sequence (P69054 whole entry): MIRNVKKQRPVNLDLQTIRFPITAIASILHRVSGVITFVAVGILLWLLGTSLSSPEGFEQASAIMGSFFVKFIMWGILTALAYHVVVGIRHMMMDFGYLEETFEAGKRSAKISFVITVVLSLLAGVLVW
T1 sequence (P07014 whole entry): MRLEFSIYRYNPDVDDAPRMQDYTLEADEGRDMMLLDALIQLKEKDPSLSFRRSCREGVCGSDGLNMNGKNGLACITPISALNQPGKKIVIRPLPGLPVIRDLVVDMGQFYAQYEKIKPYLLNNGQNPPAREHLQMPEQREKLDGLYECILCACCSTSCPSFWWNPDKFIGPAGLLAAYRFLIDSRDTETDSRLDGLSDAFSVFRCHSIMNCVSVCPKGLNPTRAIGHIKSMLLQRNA
T1 sequence (P0AC44 whole entry): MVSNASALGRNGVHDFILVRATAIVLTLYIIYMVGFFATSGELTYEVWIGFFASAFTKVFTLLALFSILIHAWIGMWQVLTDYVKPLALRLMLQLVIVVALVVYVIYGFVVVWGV
Excerpt: Investigating the role of cytochrome bd oxidases in the antibacterial activity of madecassic acid and derivatives thereof
Samantha A. Henry,a Geraud N. Sansom,a Thao Thi Phuong Tran,b Ryan A.
Boughton,a Guy Joiner,a Calum M. Webster,a H. Ireshika C. de Silva,c Michelle D.
Garrett,a Christopher J. Serpell,d Gary K. Robinson,a Mark Shepherd a a School of Natural Sciences, University of Kent, Canterbury, United Kingdom, CT2 7NH, UK b Institute of Chemistry, Vietnam Academy of Science and Technology, 18 Hoang Quoc Viet Road, Cau […]
c Department of Chemistry, University of Colombo, Colombo 03, Sri Lanka d School of Pharmacy, University College London, 29-39 Brunswick Square, London, WC1N 1AX, UK […]
Spectrakinetics were recorded on a Cary 60 spectrophotometer for 15 min and rates were calculated using the extinction coefficient A600 = 20.7 mM -1cm-1 (5) . […]
Isolated E. coli EC958 membranes were assayed for succinate dehydrogenase activity in the presence and absence of 1 mM madecassic acid (MA), and negative controls were recorded in the absence of membranes. […]

[2] = test system: E. coli EC958 cytochrome bd-I only cells; assay: Growth assay against E. coli cytochrome bd-I only cells; assay type: cell-based, Escherichia coli; settings: for IC50: Escherichia coli, read-out: IC50, growth inhibition, bd-I only E. coli cells, M9 minimal medium
Protocol: as §1
(§3) Starter cultures were grown in 10 mL LB (E. coli) in sterile 50 mL conical flasks at 180 rpm and 37 °C until stationary phase was reached and were used to inoculate 50 mL of fresh growth medium in 250 mL conical flasks. M9 minimal medium was used for E. coli (16 g L^−1 Na2HPO4·2H2O, 3 g L^−1 KH2PO4, 0.5 g L^−1 NaCl, 1 g L^−1 NH4Cl, 0.24 g L^−1 MgSO4, 0.01 g L^−1 CaCl2, 0.1% casamino acids and 2% glycerol). Drug stocks were prepared in DMSO so that their final concentrations were 40× higher than the working concentrations. Greiner F-bottom sterile 96-well plates were prepared by adding 100 μL of a 2× concentrated growth medium, 61.7 μL sterile milliQ H2O, 5 μL of the drug and 33.3 μL of cell culture (final OD600 of ∼0.1). Cells were grown in a FLUOstar Omega plate reader at double orbital pattern setting.

[3] = test system: wild type E. coli EC958 cells; assay: Survival assay against wild type E. coli EC958 cells; assay type: cell-based, Escherichia coli; settings: wild type EC958 strain
Protocol: as §2
(§4) Figure S1. Impact of madecassic acid upon E. coli growth and survival. (A) Growth assays of MA against wild type E. coli EC958 cells. Error bars represent standard deviations for at least 4 technical repeats, including two biological repeats. (B) Wild type E. coli EC958 cells were exposed to various concentrations of madecassic acid and bacterial survival was enumerated using serial dilution and viability plating. Error bars represent standard deviations for at least four technical repeats, including two […]
(§5) (1 picture or pasted object on this page, not shown here)

cytochrome bd-I [4] = target: T2, cytochrome bd-I (Escherichia coli, UniProt P0ABJ9); assay: Oxygen consumption assay with isolated E. coli EC958 cytochrome bd-I only membranes; assay type: biochemical
T2 construct: oxygen consumption activity of E. coli EC958 cytochrome bd-I-only membranes; endogenous in cells; host or cells: E. coli EC958 bd-I only strain (genotype ΔcyoA appCB::Cm), isolated membranes
T2 sequence (P0ABK2 whole entry): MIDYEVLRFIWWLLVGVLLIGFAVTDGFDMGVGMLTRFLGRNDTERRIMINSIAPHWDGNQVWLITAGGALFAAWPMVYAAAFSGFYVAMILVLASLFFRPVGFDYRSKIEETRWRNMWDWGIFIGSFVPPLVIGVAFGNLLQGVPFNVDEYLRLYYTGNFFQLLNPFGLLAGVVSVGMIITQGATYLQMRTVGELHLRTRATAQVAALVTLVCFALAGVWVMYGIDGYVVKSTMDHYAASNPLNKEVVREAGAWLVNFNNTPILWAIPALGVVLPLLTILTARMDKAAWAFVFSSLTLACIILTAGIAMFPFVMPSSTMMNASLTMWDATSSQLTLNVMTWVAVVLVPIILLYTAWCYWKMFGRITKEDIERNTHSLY
T2 sequence (A5A618 whole entry, further chain): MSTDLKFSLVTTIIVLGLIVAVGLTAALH
T2 sequence (P0ABJ9 whole entry): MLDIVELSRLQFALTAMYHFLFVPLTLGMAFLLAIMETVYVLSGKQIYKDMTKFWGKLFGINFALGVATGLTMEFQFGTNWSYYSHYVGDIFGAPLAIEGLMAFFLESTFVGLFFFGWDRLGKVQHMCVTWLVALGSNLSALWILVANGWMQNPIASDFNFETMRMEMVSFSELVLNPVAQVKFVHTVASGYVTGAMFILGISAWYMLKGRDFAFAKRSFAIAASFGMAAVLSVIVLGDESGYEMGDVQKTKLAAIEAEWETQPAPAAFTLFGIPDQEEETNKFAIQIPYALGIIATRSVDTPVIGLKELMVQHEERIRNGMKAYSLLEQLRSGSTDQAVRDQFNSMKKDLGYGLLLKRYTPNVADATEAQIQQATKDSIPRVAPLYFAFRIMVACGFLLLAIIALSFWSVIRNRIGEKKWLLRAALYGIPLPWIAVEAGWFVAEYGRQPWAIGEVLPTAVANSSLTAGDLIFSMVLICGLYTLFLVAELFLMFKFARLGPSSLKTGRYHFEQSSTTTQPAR
T2 sequence (P56100 whole entry, further chain): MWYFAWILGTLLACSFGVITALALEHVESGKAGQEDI
Protocol: Membrane preparation and oxygen consumption were performed as described previously.[13] Briefly, cells were grown to exponential phase then harvested via centrifugation for 20 min at 4000 rpm and 4 °C. The cell pellet was resuspended in ice-cold sonication buffer (20 mM Tris/HCl at pH 7.4, 2 mM MgCl2, and 1 mM EGTA). The resuspended cells were sonicated (6 × 30s on ice at […]) before centrifugation at 44 000 rpm for 1 h and 4 °C to isolate membranes. The membrane pellet was resuspended in 20 mM Tris/HCl (pH 7.4) at a final concentration of 100 mg mL^−1 and stored at −20 °C. For oxygen measurements a Rank Brothers oxygen electrode with a 4 mL closed chamber was used at 37 °C, which contained 50 mM HEPES pH 7.4, 0.5 mg mL^−1 membranes (based on wet membranes) and DMSO-solubilised drug (added from 40× final concentration). A final concentration of 8 mM succinate (pH 7.4) was added (from 160 mM stock) to initiate the reaction with a single run lasting 15–20 min.

[5] = test system: wild type E. coli EC958 cells; assay: Growth assay against wild type E. coli EC958 cells; assay type: cell-based, Escherichia coli; settings: wild type EC958 strain, aerobic conditions
Protocol: as §3, §4, §5

cytochrome bd-I [6] = target: T2, cytochrome bd-I; assay: Oxygen electrode cytochrome bd-I assay with duroquinol as the electron source (EcoM4 pSU2718G-cydABX-his6 membranes); assay type: biochemical; settings: 1 mM, 400 µM duroquinol as electron donor
Protocol: Oxygen electrode cytochrome bd-I assays with duroquinol as the electron source Membranes from the E. coli EcoM4 pSU2718G-cydABX-his 6 strain were prepared as described previously(6). To specifically monitor cytochrome bd-I activity, duroquinol was used as a directly electron source. Duroquinol was prepared from duroquinone as previously described(7) and quantified using the extinction coefficient ΔA275(ox – red) = 16 mM-1cm-1 (8). Cytochrome bd-I activity was then monitored via oxygen consumption in a Rank Brothers oxygen electrode with a 2 mL closed chamber at 37 °C, which contained 50 mM HEPES pH 7.4, 0.5 mg/mL membranes (based on wet membranes) and DMSO-solubilised drug (added from 40x final concentration) or ‘DMSO only’ control. A final concentration of 400 µM duroquinol (in 50 mM KPi, 2mM EDTA pH 7.5) was added to initiate the reaction.
7. Rich P. Electron transfer reactions between quinols and quinones in aqueous and aprotic
8. Degli Esposti M, Lenaz G, Izzo G, Papa S. Kinetics and sidedness of ubiquinol-cytochrome c
Figure S3. […] Cytochrome bd-I activity was measured via monitoring oxygen consumption in an oxygen electrode in the presence and absence of 1 mM madecassic acid, and negative controls were recorded in the absence of membranes. […]

SMILES	killing of cells (viability assay) ([1]; bd-I only E. coli cells, 3 hours exposure at 37 °C)	inhibition of SDH activity (succinate dehydrogenase)	IC50 [2] [µM]	Max inhibition of growth ([2]; bd-I only E. coli cells) [%]	susceptibility to killing (survival assay) [3]	IC50 (cytochrome bd-I [4]) [µM]	IC50 ([5]; Escherichia coli, read-out: IC50, growth inhibition) [µM]	maximal inhibition of growth [5] [%]	effect on cytochrome bd-I activity (oxygen consumption) (cytochrome bd-I [6])	LC50 ([1]; Escherichia coli, 3 h, read-out: LC50 (killing)) [µM]
C[C@H]1[C@H](C)CC[C@]2(C(=O)O)CC[C@]3(C)C(=CC[C@@H]4[C@@]5(C)C[C@@H](O)[C@H](O)[C@@](C)(CO)[C@@H]5[C@H](O)C[C@]43C)[C@H]12 [MA, Madecassic acid]	did not kill	did not inhibit SDH	9.4 ± 1.5	63	not susceptible to MA-mediated killing at concentrations below 1 mM	34 ± 11	~10	48	completely abolishes bd-I activity	–
CC(=O)OCC1(C)C(OC(C)=O)C(OC(C)=O)CC2(C)C1C(O)CC1(C)C2CC=C2C3C(C)C(C)CCC3(C(=O)NCCCCCCCCCCN)CCC21C (stereo not shown) [MA-3]	–	–	16 ± 11	–	–	10 ± 1	–	–	–	–
CC(=O)OCC1(C)C(OC(C)=O)C(OC(C)=O)CC2(C)C1C(O)CC1(C)C2CC=C2C3C(C)C(C)CCC3(C(=O)O)CCC21C (stereo not shown) [MA-2]	–	–	116 ± 22	–	–	15 ± 5	–	–	–	–
CC1CCC2(C(=O)NCCCCCCCCCCN)CCC3(C)C(=CCC4C5(C)CC(O)C(O)C(C)(CO)C5C(O)CC43C)C2C1C (stereo not shown) [MA-4]	–	–	> 250	–	–	79 ± 44	–	–	–	304 ± 73
